The values that follow come from US11465990B2, “Heterocyclic antiestrogens” (SUN PHARMA ADVANCED RESEARCH COMPANY LIMITED, priority 2015, dated 2022).

The assay relates to MCF-7 cells. Put plainly: MCF-7 cell growth inhibition assay. The assay is classed as cell-based. The note with it: MCF-7 cells plated in presence of estradiol (1 nM), five days incubation, Presto Blue viability; for inhibition at 1 µM: Homo sapiens, MCF7, 120 h; for % inhibition: at 1 μM. How it is done: MCF-7 Cell Growth Inhibition Assay
MCF-7 cells were plated in 96 well plate in the presence of estradiol (1 nM) and incubated overnight. After 24 hours test compound was added at various concentrations and incubated for five days. On the fifth day, cell viability was evaluated using Presto Blue Cell Viability Reagent. Percentage growth inhibition was calculated as follows: 100−[(O.D. of sample)*100/O.D. of vehicle control] wherein O.D. is optical density.

Consider `CC1=C(c2cccc(OC(=O)C(C)(C)C)c2)C(c2ccc(/C=C\CN3CC[C@@H](C)C3)cc2)Oc2ccc(OC(=O)C(C)(C)C)cc21` (stereo partly drawn) [Compound 19, 2,2-Dimethylpropionic Acid 3-[3-(2,2-dimethylpropionyloxy)phenyl]-4-methyl-2-{4-[(Z)-3-((R)-3-methylpyrrolidin-1-yl)propenyl]phenyl}-2H-chromen-6-yl ester], for which the inhibition (in general, the relative decrease from the control value, in per cent) at 1 µM came to 29.4%. Turning to `CC1=C(c2cccc(O)c2)C(c2ccc(/C=C/CN(C)CCCCCCCCCF)cc2)Oc2ccc(O)cc21` (stereo not drawn) [Compound 45], the % inhibition (in general, the percentage by which the read-out fell short of the control) came to 71.4%.

Regarding `CNC/C(C)=C/CCC=C(C)C` [Compound 23], the inhibition at 1 µM is 36.8%. For `CC1=C(c2cccc(O)c2)C(c2ccc(/C=C/CN3CCN(C)CC3)cc2)Oc2ccc(O)cc21` (stereo not drawn) [Compound 15], the inhibition at 1 µM amounted to 52.2%. Take `CC1=C(c2cccc(O)c2)C(c2ccc(/C=C\CN3CCCCC3)cc2)Oc2ccc(O)cc21` (stereo not drawn) [Compound 11, 3-(3-hydroxyphenyl)-4-methyl-2-[4-((Z)-3-piperidin-1-ylpropenyl)phenyl]-2H-chromen-6-ol]: the inhibition at 1 µM was determined as 65.1%.

Regarding `CC1=C(c2cccc(O)c2)C(c2ccc(/C=C/CNCCCCOCCCCF)cc2)Oc2ccc(O)cc21` (stereo not drawn) [Compound 63], the inhibition at 1 µM is 41.8%. Consider `CC1=C(c2cccc(O)c2)C(c2ccc(/C=C/CNCCCCCCCCCF)cc2)Oc2ccc(O)cc21` (stereo not drawn) [Compound 80], for which the “% inhibition” value amounted to 53%. For `CC1=C(c2cccc(O)c2)C(c2ccc(/C=C/CN3CC[C@@H](CF)C3)cc2)Oc2ccc(O)cc21` (stereo partly drawn) [Compound 59], the inhibition at 1 µM was determined as 73.5%. Consider `COc1cccc(C2=C(C)c3cc(O)ccc3OC2c2ccc(/C=C/CNCCCCCCCCCF)cc2)c1` (stereo not drawn) [Compound 47], for which the inhibition at 1 µM was found to be 67.4%. Still for that read-out and setting: to `CC1=C(c2cccc(O)c2)C(c2ccc(/C=C\CN(C)CCCCCCCCCF)cc2)Oc2ccc(O)cc21` (stereo not drawn) [Compound 48] belongs 58.9%; to `CC1=C(c2cccc(O)c2)C(c2ccc(C#CCNCCCCCCCCC(F)F)cc2)Oc2ccc(O)cc21` (stereo not drawn) [Compound 54], 67.5%; to `CC1=C(c2cccc(O)c2)C(c2ccc(/C=C/CN3CCCCC3)cc2)Oc2ccc(O)cc21` (stereo not drawn) [Compound 12, 3-(3-hydroxyphenyl)-4-methyl-2-[4-((E)-3-piperidin-1-ylpropenyl)phenyl]-2H-chromen-6-ol], 57.6%.
